{"source": "patent US20200157135A1", "about": "“SIDE-CHAIN MODIFIED ERGOSTEROL AND STIGMASTEROL DERIVATIVES AS LIVER X RECEPTOR MODULATORS” (Ospedale San Raffaele srl, priority 2017, published 2020)", "key": {"hLXRα": {"molecular_target": "T1, hLXRα (Homo sapiens, UniProt Q13133)", "T1 sequence (Q13133 209-447 limits assumed)": "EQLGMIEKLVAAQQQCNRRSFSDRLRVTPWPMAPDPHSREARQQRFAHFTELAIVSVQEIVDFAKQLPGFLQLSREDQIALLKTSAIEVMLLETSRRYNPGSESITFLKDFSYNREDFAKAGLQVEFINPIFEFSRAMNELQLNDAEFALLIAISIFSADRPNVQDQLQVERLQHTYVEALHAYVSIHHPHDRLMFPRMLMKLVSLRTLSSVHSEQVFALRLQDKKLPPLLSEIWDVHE", "experiment": "luciferase assay with GAL-4 chimeric hLXRα receptor in human embryonic kidney 293 cells", "assay_type": "cell-based", "protocol": "(§1) All the synthesized compounds were first tested for their ability to activate LXRs by using luciferase assays with GAL-4 chimeric receptors. These were performed by co-transfecting plasmids encoding hLXRα- and β-binding domains fused to GAL-4, with the respective responsive element conjugated with the luciferase reporter gene into the human embryonic kidney 293 cells.\n(§2) Cell Culture and Co-transfection Assays. Human embryonic Kidney 293 cells (American Type Culture Collection) were cultured in Dulbecco's Modified Eagle's medium containing 10% of fetal bovine serum at 37° C. in humidified atmosphere of 5% CO2. HEK293 cells (4×10^4 cells per well) were transiently transfected in 48 well plate with the reporter plasmids pMH100X4-TK-luc (100 ng/well), Renilla (22 ng/well) together with 100 ng/well of pCMX-Gal4-RXR, pCMX-Gal4-PPAR-γ, pCMX-Gal4-PXR, pFA-CMV-FXR pCMX-Gal4-LXR-α or pCMX-Gal4-LXR-β plasmids using X-tremeGENE 9 DNA Transfection Reagent (Roche). Six hours after transfection, the cells were treated with the appropriate compound for 24 hours. Luciferase activities were analyzed by luciferase Dual Reporter Assay Systems (Promega) according to the manufacturer's protocol. GAL4-LXRs, GAL4-PPAR-γ, GAL4-RXR and TK-MHC100-luc plasmids were described in Villablanca et al.49 GAL4-PXR was a kind gift of Dr. Enrique Sainz (The Scripps Research Institute, La Jolla, USA). GAL4-FXR was a kind gift of Dr. Daniel Merk (Goethe-University Frankfurt am Main). The results obtained by luciferase assays and reported in Table 1 are from three to five independent experiments.\n(§3) Statistical analysis. Data are expressed as mean±SEM and were analyzed for significance by ANOVA with Dunnet's multiple comparison tests. The analysis was performed with Prism software. Data in Table 1 are expressed as EC50±SD. In particular, the standard deviations were obtained by calculating the mean of the EC50 of each experiment (three to five independent experiments). The efficacy (%) of the compounds was calculated as the percentage of the compound effect, in terms of LXRα or β activation, versus 8 μM of 22R—HC±SD. The analyses were performed with Prism software."}, "hLXRβ": {"molecular_target": "T2, hLXRβ (Homo sapiens, UniProt P55055)", "T2 sequence (P55055 222-460 limits assumed)": "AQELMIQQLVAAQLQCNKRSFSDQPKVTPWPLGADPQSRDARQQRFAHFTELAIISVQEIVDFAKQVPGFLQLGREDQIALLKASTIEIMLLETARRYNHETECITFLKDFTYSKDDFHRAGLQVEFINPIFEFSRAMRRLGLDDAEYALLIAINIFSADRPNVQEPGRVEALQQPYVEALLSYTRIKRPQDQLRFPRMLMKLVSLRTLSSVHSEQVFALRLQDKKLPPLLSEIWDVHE", "experiment": "luciferase assay with GAL-4 chimeric hLXRβ receptor in human embryonic kidney 293 cells", "assay_type": "cell-based", "protocol": "as §1, §2, §3"}, "ABCA1 [1]": {"test_system": "ABCA1", "experiment": "qPCR of ABCA1 expression in PMA-differentiated U937 cells", "assay_type": "cell-based, human", "details": "U937 differentiated with PMA 72 h; 10 μM, 6 hours", "protocol": "(§4) U937 cells differentiated with PMA for 72 hours were treated with T0901317 (10 μM), 22R—HC (3) or with the tested compound (10 μM). […] (n=3/group). *p<0.05, **p<0.01, ***p<0.001.\n(§5) LXR agonists induce the expression of target genes, which are involved in cholesterol homeostasis, particularly in the reverse cholesterol transport pathway.43 Indeed, LXR agonists induce the expression of ABCA1 both in macrophages and in many tissues of the periphery such as the intestine.44 Moreover, ABCA1 regulates cholesterol efflux to APOAI acceptors.45 In the liver, LXR activation promotes the biosynthesis of fatty acids, a process also termed as de novo lipogenesis by inducing the expression of the master regulator of hepatic lipogenesis sterol-regulatory element-binding protein 1C (SREBP-1c), as well as several downstream genes in the SREBP-1c pathway, including steroyl CoA desaturase 1 (SCD1) and fatty acid synthase (FASN).43 Therefore, it was investigated, by quantitative PCR (qPCR), the expression of ABCA1, SREBP1c, FASN, and SCD1, by using RNA from monocytic U937 cells (FIG. 3) and from hepatic HepG2 cells (FIG. 4) stimulated with our compounds, the non-steroidal agonist T0901317 or the endogenous ligand 22R—HC (3) as positive controls. […] Then, the induction of genes involved in the lipogenesis using the hepatic cell line HepG2. 43,22 was evaluated. […] Over the time, indeed, substantial efforts have been dedicated to the identification of LXR ligands able to turning on ABC transporter genes, without affecting lipogenic genes levels. This task is still one of the major challenge to the discovery of a clinically useful LXR modulator for atherosclerosis.\n(§6) Quantitative Real-Time-PCR. U937 cell line was differentiated in foam macrophages with phorbol 12-myristate 13-acetate (PMA) 10 ng/ml (Sigma) for 72 hours at 37° C. in […] at the concentration of 3×10^6 cells in 10 ml RPMI 10% FBS. At day 3 nuclear receptor ligands were added for 6 hours. HepG2 cells were treated with the ligands as described by Quinet et al.22 Total RNA was purified by TRIZOL (Invitrogen, Carlsbad, Calif., USA). Reverse transcription was performed incubating 2 μg of total RNA 1 hour at 42° C. with MLV-reverse transcriptase (Promega). Quantitative PCR was performed using Sybr Green Master Mix (Applied Biosystems) and real-time PCR (Viia 7 Real Time PCR System, Applied Biosystems). All PCR reactions were done in triplicate. The comparative Ct method was used to quantify transcripts that were normalized for human GAPDH. the following primer pairs were used: […]"}, "SREBP1c": {"test_system": "SREBP1c", "experiment": "qPCR of SREBP1c expression in PMA-differentiated U937 cells", "assay_type": "cell-based, human", "details": "U937 differentiated with PMA 72 h; 10 μM, 6 hours", "protocol": "as §4, §5, §6"}, "SCD1": {"test_system": "SCD1", "experiment": "qPCR of SCD1 expression in PMA-differentiated U937 cells", "assay_type": "cell-based, human", "details": "U937 differentiated with PMA 72 h; 10 μM, 6 hours", "protocol": "as §4, §5, §6"}, "TNFα": {"test_system": "TNFα", "experiment": "qPCR of TNFα expression in differentiated U937 cells treated with LPS", "assay_type": "cell-based, human", "details": "differentiated U937, 6 hours, 10 μM in combination with LPS (100 ng/ml)", "protocol": "U937 cells differentiated with PMA for 72 hours were treated with LPS (100 ng/ml) in combination with T0901317 (10 μM) or with the title compounds (10 μM). […] (n=3/group). *p<0.05, **p<0.01, ***p<0.001.\nas §6"}, "[2]": {"test_system": "murine Lewis lung carcinoma cells (LLC)", "experiment": "growth of LLC tumor cells in vitro", "assay_type": "cell-based", "details": "96 hours, 10 μM", "description": "(§7) We have performed a set of experiments to evaluate whether some LXR modulators, particularly PFM009 (13) and PFM018 (25) influence the growth of the murine Lewis lung carcinoma cells (LLC) in vitro and in vivo."}, "Abca1 [3]": {"test_system": "Abca1", "experiment": "qPCR of LXR target gene Abca1 in LLC tumor cells", "assay_type": "cell-based, murine", "description": "as §7"}, "LLC tumor": {"test_system": "LLC tumor", "experiment": "LLC tumor growth in vivo in C57BL/6 mice", "details": "1×10^6 LLC cells subcutaneously, 30 mg/Kg/day for five consecutive days from day six", "protocol": "Then, we tested whether these compounds could influence LLC tumor growth in vivo. To do that, C57BL/6 mice were challenged with 1×10^6 LLC tumor cells subcutaneously. Six days later, tumor-bearing mice were treated with PFM009 or PFM018 (30 mg/Kg/day) for five consecutive days and then evaluated for tumor growth."}}, "note": "Entries after “also recorded” stand apart in the source; their conditions may differ.", "data": [{"compound": "CC[C@H](C(=O)C[C@@H](C)[C@H]1CC[C@H]2[C@@H]3CC=C4C[C@@H](O)CC[C@]4(C)[C@H]3CC[C@]12C)C(C)C", "note": "[Compound 25, 3β-Hydroxystigmast-5-ene-23-one]", "values": [{"measurement": "LXRα Efficacy (%) ± SD", "setting": "hLXRα; % of compound effect versus 8 μM of 22R-HC", "value": "lowest efficacy at LXRα"}, {"measurement": "EC50", "setting": "hLXRα; GAL4-hLXRα luciferase, HEK293, dose-response 32-1 μM, mean of three-five independent experiments, read-out: LXRα EC50 (μM) ± SD", "value": 14.5, "unit": "µM"}, {"measurement": "Emax", "setting": "hLXRα; HEK293, 24 h, read-out: LXRα Efficacy (%) ± SD", "value": "12.4 ± 4.2", "unit": "%"}, {"measurement": "LXR isoform selectivity profile", "setting": "hLXRα; LXRα versus LXRβ, GAL4 luciferase assays", "value": "good selectivity for the LXRβ isoform in terms of EC50; also recorded: LXRβ-selective agonist; also recorded: selective LXRβ agonist"}, {"measurement": "EC50", "setting": "hLXRβ; GAL4-hLXRβ luciferase, HEK293, dose-response 32-1 μM, mean of three-five independent experiments, read-out: LXRβ EC50 (μM) ± SD", "value": "6.02 ± 1.2", "unit": "µM"}, {"measurement": "Emax", "setting": "hLXRβ; HEK293, 24 h, read-out: LXRβ Efficacy (%) ± SD, % of compound effect versus 8 μM of 22R-HC", "value": "~50", "unit": "%"}, {"measurement": "beta/alfa efficacy ratio", "setting": "hLXRβ; LXRβ efficacy over LXRα efficacy", "value": 3.7}, {"measurement": "ABCA1 expression", "setting": "ABCA1 [1]", "value": "strong induction of ABCA1 expression"}, {"measurement": "SREBP-1c up-regulation", "setting": "SREBP1c", "value": "poor activators of SREBP1c and SCD1"}, {"measurement": "SCD1 expression", "setting": "SCD1", "value": "poor activators of SREBP1c and SCD1"}, {"measurement": "inhibition of TNFα expression", "setting": "TNFα", "value": "the most active"}, {"measurement": "LLC tumor growth in vitro", "setting": "[2]", "value": "not able to alter LLC tumor growth in vitro"}, {"measurement": "expression of the LXR target gene Abca1", "setting": "Abca1 [3]", "value": "induced the expression of the LXR target gene Abca1"}, {"measurement": "LLC tumor growth in vivo", "setting": "LLC tumor", "value": "significant control of LLC tumor growth"}]}, {"compound": "CC(C)[C@@H](C)C[C@@H](O)[C@@H](C)[C@H]1CC[C@H]2C3=CC=C4C[C@@H](O)CC[C@]4(C)[C@H]3CC[C@]12C", "values": [{"measurement": "melting point", "value": "117.3 to 121", "unit": "°C"}]}]}
